Test results: patent US6531510B1, “N,N′-bis(2-hydroxybenzyl)ethylenediamine-N,N′-diacetic acid in iron chelating therapy” (University of Florida Research Foundation, Inc., priority 1998, dated 2003)
Structures can show the parent of a compound that is named as a salt.

Key:
[1] = tested on: Cebus apella monkeys with iron overload; details: cited from earlier work
[2] = tested on: iron-loaded Cebus apella monkeys; assay: Chelator-induced iron excretion (iron-balance study) in iron-loaded Cebus apella monkeys; assay type: in vivo; details: s.c., 150 μmoles/Kg; for efficiency of iron chelation: mean
Procedure: After intramuscular anesthesia with ketamine, an intravenous infusion was started in a leg vein. […] Two to three infusions, separated by between 10 and 14 days, were necessary to provide about 500 mg iron per Kg body weight. […] At least twenty half-lives, sixty days, passed before using any of the animals in experiments evaluating iron-chelating agents.
Seven days before the administration of the drug, the animals were placed in metabolic cages and started on a low-iron liquid diet. The monkeys were maintained on the low-iron liquid diet for the duration of the experiment. They were given food according to their body weight, and intake was very carefully monitored.
Three days prior to drug administration, day −2 to day 0, baseline iron intake and output values were measured. This same measurement was made for day +1 to day +3. The total amount of iron intake was compared with the total amount of iron excreted.
Fecal and urine samples were collected at 24 hour intervals. The collections began four days prior to the administration of the test drug and continued for an additional five days after the drug was given. Fecal samples were assayed for the presence of occult blood, weighed, and mixed with distilled deionized water prior to autoclaving for 30 minutes. The mixture was then freeze-dried, and a known portion of the powder was mixed with low-iron nitric acid and refluxed for 24 hours. Once any particulate matter in the digested samples was removed by centrifugation, iron concentrations were determined by flame atomic absorption. Monkey urine samples were acidified and reconstituted to initial volume after sterilization, if necessary.
In the primates, DFOM was administered s.c. in sterile water for injection at a dose of 150 μmoles/Kg, while HBED was first dissolved in a phosphate buffer, ph 7.4, thus forming the mono-sodium salt and given s.c. in 40% wt./vol. Cremophor RH40 at a dose of 75 or 150 μmoles/Kg. In addition, in order to more closely mimic clinical applications in patients, mono-sodium HBED was also given to the monkeys s.c. at a dose of 150 μmoles/Kg in a phosphate buffer; no Cremophor vehicle was used.
The efficiency of each chelator was calculated on the basis of a 1:1 ligand-iron complex.
Groups of monkeys (n=6 in each group) were given s.c. injections of either DFOM or MS HBED. […] In our initial experiments, HBED monohydrochloride monohydrate was dissolved in a phosphate buffer at p.7.2 to form a solution of the MS HBED and administered in 40% wt./vol. […] HBED monohydrochloride monohydrate-Cremophor was administered by s.c. injection at doses of 75 or 150 μmoles/Kg.

[3] = typical, background statement; cited from earlier work
[4] = Water solubility; assay type: physicochemical
[5] = tested on: human patients; details: oral; cited from earlier work

For `CC(=O)N(O)CCCCCNC(=O)CCC(=O)N(O)CCCCCNC(=O)CCC(=O)N(O)CCCCCN` [DFOM, desferrioxamine B mesylate], the “activity in the Cebus apella monkey screen compared with oral HBED or its dimethyl ester” value ([1]; DFOM subcutaneous vs HBED or dimethyl ester oral) is listed as “significantly higher activity”, the “share of chelator-induced iron excretion in the stool” value (shortened to “share … in the stool”) ([2]; aqueous solution) is listed as “about 65%” and the “share of chelator-induced iron excretion in the urine” value (“share … in the urine” below) ([2]; aqueous solution) is listed as “about 35%”. The chelator-induced iron excretion ([2]; aqueous solution, n=6) was 435±115 μg Fe/Kg body weight, the “efficiency of iron chelation” value ([2]; aqueous solution) was 5.1±1.3% and the “share of the compound administered that binds iron” value [3] was no more than 5%.
With `Cl.O.O=C(O)CN(CCN(CC(=O)O)Cc1ccccc1O)Cc1ccccc1O` [HBED monohydrochloride monohydrate] the water solubility [4] was “low water solubility”.
For `O=C(O)CN(CCN(CC(=O)O)Cc1ccccc1O)Cc1ccccc1O` [HBED, N,N′-bis(2-hydroxybenzyl)ethylenediamine-N,N′-diacetic acid], the “level of iron excretion for treatment of iron overload” value [5] is given as “ineffective”, the chelator-induced iron excretion ([1]; oral, phosphate buffer, previously published study) is given as 50±44 μg Fe/Kg body weight and the “share … in the stool” value ([1]; oral, phosphate buffer) is given as “about 56%”. For the same molecule, the “share … in the urine” value ([1]; oral, phosphate buffer) was “about 44%” and the “efficiency of iron chelation” value ([1]; oral, phosphate buffer, mean) was 0.5±0.5%.
With `O=C([O-])CN(CCN(CC(=O)O)Cc1ccccc1O)Cc1ccccc1O.[Na+]` [MS HBED, HBED, monosodium salt] the “mean net iron excretion, phosphate buffer vs Cremophor preparation” value ([2]; P>0.2) was “no significant difference”, the “share … in the stool” value ([2]; phosphate buffer) was “about 92%” and the “share … in the urine” value ([2]; phosphate buffer) was “about 8%”. For the same molecule, the “iron excretion relative to DFOM” value ([2]; phosphate buffer vs DFOM s.c. 150 μmoles/Kg, P<0.001) was “about twice”, the chelator-induced iron excretion ([2]; phosphate buffer, no Cremophor) was 899±193 μg Fe/Kg body weight and the “efficiency of iron chelation” value ([2]; phosphate buffer) was 10.7±2.3%.
